This is an account of results in BindingDB's records for patent US20230312550 (Astrazeneca, 2023).

In general, koff refers to the first-order rate constant of dissociation. Low values mean slow dissociation, high ones fast dissociation. By kon is commonly meant a measure of how fast the partners come together.

This test addresses T1, Prolyl endopeptidase FAP (Homo sapiens, UniProt Q12884).
T1 sequence (Q12884 whole entry): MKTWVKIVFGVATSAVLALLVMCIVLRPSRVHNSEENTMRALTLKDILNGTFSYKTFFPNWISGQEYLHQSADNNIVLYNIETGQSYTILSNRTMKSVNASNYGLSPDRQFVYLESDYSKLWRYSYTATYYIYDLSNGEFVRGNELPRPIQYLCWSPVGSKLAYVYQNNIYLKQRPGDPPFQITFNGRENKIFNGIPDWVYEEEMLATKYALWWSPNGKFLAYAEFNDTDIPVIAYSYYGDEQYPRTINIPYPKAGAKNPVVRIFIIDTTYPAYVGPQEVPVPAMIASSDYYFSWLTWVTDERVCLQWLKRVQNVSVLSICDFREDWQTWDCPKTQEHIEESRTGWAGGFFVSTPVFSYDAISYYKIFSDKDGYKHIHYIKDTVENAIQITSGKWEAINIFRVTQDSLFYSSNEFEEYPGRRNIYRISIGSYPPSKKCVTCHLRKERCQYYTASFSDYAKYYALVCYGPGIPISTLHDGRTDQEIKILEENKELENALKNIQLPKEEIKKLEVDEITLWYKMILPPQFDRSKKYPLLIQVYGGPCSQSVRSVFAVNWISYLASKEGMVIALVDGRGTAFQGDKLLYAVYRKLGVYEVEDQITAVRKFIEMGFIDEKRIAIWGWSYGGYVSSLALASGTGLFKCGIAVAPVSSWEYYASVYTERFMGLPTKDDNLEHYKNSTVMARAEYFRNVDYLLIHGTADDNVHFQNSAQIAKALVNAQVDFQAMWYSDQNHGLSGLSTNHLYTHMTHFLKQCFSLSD
As to the kind of experiment: hFAP Binding Assay. As to conditions: for kon: read-out: kon (M-1-s-1).

Experimental: Table 1: Compounds were tested in a direct binding assay using 8K surface plasmon resonance biosensor (GE Healthcare) at 20° C. Immobilization of hFAP (M39-A757) on a CMD200M sensor chip (Xantec) was performed using standard amine coupling procedure in immobilization buffer (10 mM HEPES, 150 mM NaCl, 0.05% Tween20, pH 7.4). The surface was washed with 10 mM NaOH, 1M NaCl before being activated with EDC/NHS (GE Healthcare), followed by immobilization of hFAP (in 10 mM Acetate pH 5.0). Finally, the surface was deactivated by ethanolamine. Immobilization levels of hFAP were around 4000-6000 RU. The reference spot was treated as described, omitting the injection of hFAP. Compound concentration series were injected over the immobilized protein in increasing concentrations (2-500 nM) using single cycle kinetics in running buffer (20 mM TRIS, 150 mM NaCl, 0.05% Tween20, 1% DMSO, pH 7.4).

With `C[C@]1(F)CCN(c2ccc3nccc(C(=O)NCC(=O)N4CSC[C@H]4C#N)c3c2)C1` [US20230312550, Example 198], the koff turned out to be 0.00011 s⁻¹ and the kon amounted to 2.9e+06 M⁻¹ s⁻¹.
Taken in the same sequence, the figures for `COC1(C)CCN(c2ccc3nccc(C(=O)NCC(=O)N4CSC[C@H]4C#N)c3c2)CC1` [US20230312550, Example 42] were 5.4e-05 s⁻¹ and 1.8e+06 M⁻¹ s⁻¹.
Taken in the same sequence, the figures for `N#C[C@@H]1CSCN1C(=O)CNC(=O)c1ccnc2ccc(-n3ccnc3-c3ccccc3)cc12` [US20230312550, Example 217] were 0.0013 s⁻¹ and 1.8e+06 M⁻¹ s⁻¹.
The corresponding values for `C[C@H]1CC(F)(F)CCN1c1ccc2nccc(C(=O)NCC(=O)N3CSC[C@H]3C#N)c2c1` [US20230312550, Example 44] are 7.2e-05 s⁻¹ and 1.7e+06 M⁻¹ s⁻¹.
With `N#C[C@@H]1CSCN1C(=O)CNC(=O)c1ccnc2ccc(-n3ccc4c(F)cc(F)cc43)cc12` [US20230312550, Example 119], the koff was 0.00031 s⁻¹ and the kon worked out at 610000 M⁻¹ s⁻¹.
The corresponding values for `CS(=O)(=O)C[C@H]1CN(c2ccc3nccc(C(=O)NCC(=O)N4CSC[C@H]4C#N)c3c2)CCO1` [US20230312550, Example 92] are 0.00011 s⁻¹ and 2.2e+06 M⁻¹ s⁻¹.
Taken in the same sequence, the figures for `CC1(C2CC2)CN(c2ccc3nccc(C(=O)NCC(=O)N4CSC[C@H]4C#N)c3c2)C1` [US20230312550, Example 134] were 8e-05 s⁻¹ and 620000 M⁻¹ s⁻¹.
Regarding `C[C@H]1CCN(c2ccc3nccc(C(=O)NCC(=O)N4CSC[C@H]4C#N)c3c2)C1=O` (single isomer, unassigned) [US20230312550, Example 201], the koff came out at 0.0001 s⁻¹ and the kon is 1.8e+06 M⁻¹ s⁻¹.
Take `N#C[C@@H]1CSCN1C(=O)CNC(=O)c1ccnc2ccc(N3C[C@@H]4CCC[C@@H]43)cc12` (mixture of isomers) [US20230312550, Example 156]: the koff amounted to 6.6e-05 s⁻¹ and the kon amounted to 1.2e+06 M⁻¹ s⁻¹.
For `COCC[C@@H]1COCCN1c1ccc2nccc(C(=O)NCC(=O)N3CSC[C@H]3C#N)c2c1` [US20230312550, Example 95], the dissociation rate constant (koff) amounted to 5.6e-05 s⁻¹ and the kon was 2.9e+06 M⁻¹ s⁻¹.
Consider `CC1(C)CCN(c2ccc3nccc(C(=O)NCC(=O)N4CSC[C@H]4C#N)c3c2)CC1` [US20230312550, Example 33], for which the koff amounted to 5.2e-05 s⁻¹ and the kon amounted to 1.1e+06 M⁻¹ s⁻¹.
The corresponding values for `N#C[C@@H]1CSCN1C(=O)CNC(=O)c1ccnc2ccc(N3CC(CCF)C3)cc12` [US20230312550, Example 146] are 0.00017 s⁻¹ and 1.4e+06 M⁻¹ s⁻¹.
In the case of `N#C[C@@H]1CSCN1C(=O)CNC(=O)c1ccnc2c(Cl)cc(N3CCOCC3)cc12` [US20230312550, Example 180], the koff was determined as 0.00095 s⁻¹ and the kon is 560000 M⁻¹ s⁻¹.
As to `N#C[C@@H]1CSCN1C(=O)CNC(=O)c1ccnc2ccc(N3CCC(F)(c4ccccc4)CC3)cc12` [US20230312550, Example 223], the koff is 2.6e-05 s⁻¹ and the kon worked out at 2.5e+06 M⁻¹ s⁻¹.
Taken in the same sequence, the figures for `N#C[C@@H]1CSCN1C(=O)CNC(=O)c1ccnc2ccc(N3CCC4(CCOCC4)CC3)cc12` [US20230312550, Example 162] were 2.8e-05 s⁻¹ and 1.9e+06 M⁻¹ s⁻¹.
Taken in the same sequence, the figures for `N#C[C@@H]1CSCN1C(=O)CNC(=O)c1ccnc2ccc(-c3cncnc3)cc12` [US20230312550, Example 127] were 0.002 s⁻¹ and 6e+06 M⁻¹ s⁻¹.
The corresponding values for `CC1(O)CCN(c2ccc3nccc(C(=O)NCC(=O)N4CSC[C@H]4C#N)c3c2)CC1` [US20230312550, Example 190] are 3.6e-05 s⁻¹ and 1.8e+06 M⁻¹ s⁻¹.
With `N#C[C@@H]1CSCN1C(=O)CNC(=O)c1ccnc2ccc(N3CCOC[C@@H]3C(F)(F)F)cc12` [US20230312550, Example 85], the koff amounted to 0.00011 s⁻¹ and the “koff (s-1)” value turned out to be 0.00011 s⁻¹.
With `N#C[C@@H]1CSCN1C(=O)CNC(=O)c1ccnc2ccc(N3CC(Cc4ccc(Cl)cc4)C3)cc12` [US20230312550, Example 187], the koff was 0.00022 s⁻¹ and the kon is 3.1e+06 M⁻¹ s⁻¹.
`N#C[C@@H]1CSCN1C(=O)CNC(=O)c1ccnc2ccc(N3CCCC[C@@H](F)C3)cc12` [US20230312550, Example 59]: the off-rate constant (koff) was 0.00019 s⁻¹ and the kon came to 2.6e+06 M⁻¹ s⁻¹.
Taken in the same sequence, the figures for `CC1(C)CCN(c2ccc3nccc(C(=O)NCC(=O)N4CSC[C@H]4C#N)c3c2)C1=O` [US20230312550, Example 12] were 6.4e-05 s⁻¹ and 1.9e+06 M⁻¹ s⁻¹.
Consider `C[C@@H]1CN(c2ccc3nccc(C(=O)NCC(=O)N4CSC[C@H]4C#N)c3c2)C[C@H](C)[C@]1(C)O` [US20230312550, Example 193], for which the koff is 0.00012 s⁻¹ and the kon is 740000 M⁻¹ s⁻¹.
Taken in the same sequence, the figures for `CC1(F)CCN(c2ccc3nccc(C(=O)NCC(=O)N4CSC[C@H]4C#N)c3c2)CC1` [US20230312550, Example 34] were 8.2e-05 s⁻¹ and 2.2e+06 M⁻¹ s⁻¹.
As for `CC1(CF)CCN(c2ccc3nccc(C(=O)NCC(=O)N4CSC[C@H]4C#N)c3c2)CC1` [US20230312550, Example 37], the off-rate (koff) came to 3e-05 s⁻¹ and the kon worked out at 1e+06 M⁻¹ s⁻¹.
Taken in the same sequence, the figures for `N#C[C@@H]1CSCN1C(=O)CNC(=O)c1ccnc2ccc(N3CC(C(F)F)C3)cc12` [US20230312550, Example 28] were 0.00011 s⁻¹ and 1.1e+06 M⁻¹ s⁻¹.
Taken in the same sequence, the figures for `Cn1nccc1-c1ccc2nccc(C(=O)NCC(=O)N3CSC[C@H]3C#N)c2c1` [US20230312550, Example 174] were 0.00024 s⁻¹ and 1.9e+06 M⁻¹ s⁻¹.
Taken in the same sequence, the figures for `N#C[C@@H]1CSCN1C(=O)CNC(=O)c1ccnc2ccc(N3CC4CC(C3)O4)cc12` [US20230312550, Example 77] were 6.6e-05 s⁻¹ and 4.8e+06 M⁻¹ s⁻¹.
In the case of `N#C[C@@H]1CSCN1C(=O)CNC(=O)c1ccnc2ccc(N3CCCCO3)cc12` [US20230312550, Example 1], the koff was 0.00014 s⁻¹ and the kon turned out to be 730000 M⁻¹ s⁻¹.
Taken in the same sequence, the figures for `N#C[C@@H]1CSCN1C(=O)CNC(=O)c1ccnc2ccc(N3CC4CCCC4C3)cc12` (stereo partly specified) [US20230312550, Example 53] were 5e-05 s⁻¹ and 680000 M⁻¹ s⁻¹.
Taken in the same sequence, the figures for `N#C[C@@H]1CSCN1C(=O)CNC(=O)c1ccnc2ccc(N3CC(C4CC4)C3)cc12` [US20230312550, Example 145] were 0.00013 s⁻¹ and 4.5e+06 M⁻¹ s⁻¹.
The corresponding values for `CC1(C)CN(c2ccc3nccc(C(=O)NCC(=O)N4CSC[C@H]4C#N)c3c2)CCC1(F)F` [US20230312550, Example 38] are 7.8e-05 s⁻¹ and 520000 M⁻¹ s⁻¹.
Regarding `N#C[C@@H]1CSCN1C(=O)CNC(=O)c1ccnc2ccc(N3CCOC4(CCOCC4)C3)cc12` [US20230312550, Example 99], the koff was found to be 0.0002 s⁻¹ and the kon stood at 2.1e+06 M⁻¹ s⁻¹.
Taken in the same sequence, the figures for `N#C[C@@H]1CSCN1C(=O)CNC(=O)c1ccnc2ccc(N3CCC4(CC3)COC4)cc12` [US20230312550, Example 229] were 2.6e-05 s⁻¹ and 2.4e+06 M⁻¹ s⁻¹.
The corresponding values for `C[C@H]1COC[C@H](C)N1c1ccc2nccc(C(=O)NCC(=O)N3CSC[C@H]3C#N)c2c1` [US20230312550, Example 103] are 0.0001 s⁻¹ and 3e+06 M⁻¹ s⁻¹.
The corresponding values for `N#C[C@@H]1CSCN1C(=O)CNC(=O)c1ccnc2ccc(N3C[C@H](F)[C@@H](F)C3)cc12` [US20230312550, Example 213] are 0.00017 s⁻¹ and 4.4e+06 M⁻¹ s⁻¹.
Consider `C[C@@H]1COC[C@H](C)N1c1ccc2nccc(C(=O)NCC(=O)N3CSC[C@H]3C#N)c2c1` [US20230312550, Example 90], for which the off-rate (koff) amounted to 0.0001 s⁻¹ and the kon was 480000 M⁻¹ s⁻¹.
The corresponding values for `N#C[C@@H]1CSCN1C(=O)CNC(=O)c1ccnc2ccc(-n3ccc4c3CCCC4)cc12` [US20230312550, Example 219] are 0.0002 s⁻¹ and 2.4e+06 M⁻¹ s⁻¹.
The corresponding values for `N#C[C@@H]1CSCN1C(=O)CNC(=O)c1ccnc2ccc(N3CCO[C@@H](C(F)(F)F)C3)cc12` [US20230312550, Example 73] are 0.00016 s⁻¹ and 2.4e+06 M⁻¹ s⁻¹.
The corresponding values for `COCC1(C)CN(c2ccc3nccc(C(=O)NCC(=O)N4CSC[C@H]4C#N)c3c2)C1` [US20230312550, Example 29] are 6.1e-05 s⁻¹ and 1.1e+06 M⁻¹ s⁻¹.
On to `C[C@@H]1CCN(c2ccc3nccc(C(=O)NCC(=O)N4CSC[C@H]4C#N)c3c2)C1` [US20230312550, Example 55], for which the koff amounted to 0.00025 s⁻¹ and the kon was 6.7e+06 M⁻¹ s⁻¹.
The corresponding values for `Cc1ccn(-c2ccc3nccc(C(=O)NCC(=O)N4CSC[C@H]4C#N)c3c2)c1` [US20230312550, Example 121] are 1.6e-05 s⁻¹ and 1.1e+06 M⁻¹ s⁻¹.
Taken in the same sequence, the figures for `CC1(C(F)F)CN(c2ccc3nccc(C(=O)NCC(=O)N4CSC[C@H]4C#N)c3c2)C1` [US20230312550, Example 135] were 2.3e-05 s⁻¹ and 1.7e+06 M⁻¹ s⁻¹.
The corresponding values for `N#C[C@@H]1CSCN1C(=O)CNC(=O)c1ccnc2ccc(N3C[C@@H](F)[C@H](F)C3)cc12` [US20230312550, Example 214] are 9.2e-05 s⁻¹ and 2.9e+06 M⁻¹ s⁻¹.
